In patent publication US20240002397A1, “3-AMINO PYRROLIDINE AND PIPERIDINE MACROCYCLIC OREXIN RECEPTOR AGONISTS” (Merck Sharp & Dohme LLC, priority 2020, published 2024) one finds Emax data, which are given here for 22 compounds.

A word on the Emax: it is the maximal effect, on the per cent scale that the assay sets.

The target of the experiment is T1, human OX2R (Homo sapiens, UniProt O43614).
T1 sequence (O43614 1-444): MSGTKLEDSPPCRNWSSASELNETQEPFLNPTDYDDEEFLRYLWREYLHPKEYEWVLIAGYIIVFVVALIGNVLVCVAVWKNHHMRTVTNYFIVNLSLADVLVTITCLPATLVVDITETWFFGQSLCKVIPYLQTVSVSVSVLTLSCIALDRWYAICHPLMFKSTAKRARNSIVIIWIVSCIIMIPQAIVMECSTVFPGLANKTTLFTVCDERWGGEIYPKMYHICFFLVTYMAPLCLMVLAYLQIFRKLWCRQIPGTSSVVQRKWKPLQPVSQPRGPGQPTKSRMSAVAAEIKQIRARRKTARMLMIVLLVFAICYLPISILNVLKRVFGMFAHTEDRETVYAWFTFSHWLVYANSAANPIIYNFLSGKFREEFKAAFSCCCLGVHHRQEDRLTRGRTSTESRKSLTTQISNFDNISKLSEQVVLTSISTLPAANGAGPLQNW
Description: IPOne (IP-1) orexin receptor agonist assay in CHO cells expressing human OX2R. The note with it: CHO, hOX2R IP-One; percentage of mean max effect of a reference compound at 1 uM with 100% activity.
In turn, `C[C@@H]1C[C@H](NS(C)(=O)=O)C2COC3CCC(CC3)c3cc(C(F)(F)F)cc(n3)OCCOC(=O)N21` (stereo partly shown) [Example 54, N-((2^1S,2^4S,5^2R,5^3S,5^5R)-5^5-methyl-6-oxo-1^4-(trifluoromethyl)-3,7,10-trioxa-1(2,6)-pyridina-5(2,1)-pyrrolidina-2(1,4)-cyclohexanacyclodecaphane-5^3-yl)methanesulfonamide] came in with a maximum response (Emax) of 100%.

`C[C@@H]1C[C@H](NS(C)(=O)=O)C2COC3CCC(CC3)c3cnc(F)c(c3)OCCCOC(=O)N21` (stereo partly shown) [Example 55, N-((2^1S,2^4S,5^2R,5^3S,5^5R)-1^6-fluoro-5^5-methyl-6-oxo-3,7,11-trioxa-1(3,5)-pyridina-5(2,1)-pyrrolidina-2(1,4)-cyclohexanacycloundecaphane-5^3-yl)methanesulfonamide] registered an Emax of 103%.

In turn, `C[C@@H]1C[C@H](NS(C)(=O)=O)C2COC3CCC(CC3)c3ccc(F)c(n3)OCCOC(=O)N21` (stereo partly shown) [Example 56, N-((2^1S,2^4S,5^2R,5^3S,5^5R)-1^5-fluoro-5^5-methyl-6-oxo-3,7,10-trioxa-1(2,6)-pyridina-5(2,1)-pyrrolidina-2(1,4)-cyclohexanacyclodecaphane-5^3-yl)methanesulfonamide] returned an Emax of 98.2%.

Turning to `C[C@@H]1C[C@H](NS(C)(=O)=O)C2COC3CCC(CC3)c3ccc(F)c(n3)OCCCOC(=O)N21` (stereo partly shown) [Example 57, N-((2^1S,2^4S,5^2R,5^3S,5^5R)-1^5-fluoro-5^5-methyl-6-oxo-3,7,11-trioxa-1(2,6)-pyridina-5(2,1)-pyrrolidina-2(1,4)-cyclohexanacycloundecaphane-5^3-yl)methanesulfonamide], the maximum response (Emax) stood at 102%.

`C[C@@H]1C[C@H](NS(C)(=O)=O)C2COC3CCC(CC3)c3nc(ccc3OC(F)(F)F)OCCOC(=O)N21` (stereo partly shown) [Example 58, N-((2^1S,2^4S,5^2R,5^3S,5^5R)-5^5-methyl-6-oxo-1^3-(trifluoromethoxy)-3,7,10-trioxa-1(2,6)-pyridina-5(2,1)-pyrrolidina-2(1,4)-cyclohexanacyclodecaphane-5^3-yl)methanesulfonamide]: the Emax was determined as 102%.

The compound `C[C@@H]1C[C@H](NS(C)(=O)=O)C2COC3CCC(CC3)c3nc(ccc3OC(F)(F)F)OCCCOC(=O)N21` (stereo partly shown) [Example 59, N-((2^1S,2^4S,5^2R,5^3S,5^5R)-5^5-methyl-6-oxo-1^3-(trifluoromethoxy)-3,7,11-trioxa-1(2,6)-pyridina-5(2,1)-pyrrolidina-2(1,4)-cyclohexanacycloundecaphane-5^3-yl)methanesulfonamide] came in with an Emax of 96.9%.

Compound `CC(C)Oc1ccc2cc1C1CCC(CC1)OCC1[C@@H](NS(C)(=O)=O)C[C@@H](C)N1C(=O)OCCO2` (stereo partly shown) [Example 62, N-((2^1S,2^4S,5^2R,5^3S,5^5R)-1^6-isopropoxy-5^5-methyl-6-oxo-3,7,10-trioxa-5(2,1)-pyrrolidina-1(1,3)-benzena-2(1,4)-cyclohexanacyclodecaphane-5^3-yl)methanesulfonamide] displayed an Emax of 91.2%.

`CC(C)Oc1ccc2cc1C1CCC(CC1)OCC1[C@@H](NS(C)(=O)=O)C[C@@H](C)N1C(=O)OCCCO2` (stereo partly shown) [Example 63, N-((2^1S,2^4S,5^2R,5^3S,5^5R)-1^6-isopropoxy-5^5-methyl-6-oxo-3,7,11-trioxa-5(2,1)-pyrrolidina-1(1,3)-benzena-2(1,4)-cyclohexanacycloundecaphane-5^3-yl)methanesulfonamide]: the maximum response (Emax) was 93.1%.

As to `C[C@@H]1C[C@H](NS(C)(=O)=O)C2COC3CCC(CC3)c3ccc(C(F)(F)F)c(n3)OCCOC(=O)N21` (stereo partly shown) [Example 64, N-((2^1S,2^4S,5^2R,5^3S,5^5R)-5^5-methyl-6-oxo-1^5-(trifluoromethyl)-3,7,10-trioxa-1(2,6)-pyridina-5(2,1)-pyrrolidina-2(1,4)-cyclohexanacyclodecaphane-5^3-yl)methanesulfonamide], the Emax was 102%.

In turn, `C[C@@H]1C[C@H](NS(C)(=O)=O)C2COC3CCC(CC3)c3ccc(C(F)(F)F)c(n3)OCCCOC(=O)N21` (stereo partly shown) [Example 65, N-((2^1S,2^4S,5^2R,5^3S,5^5R)-5^5-methyl-6-oxo-1^5-(trifluoromethyl)-3,7,11-trioxa-1(2,6)-pyridina-5(2,1)-pyrrolidina-2(1,4)-cyclohexanacycloundecaphane-5^3-yl)methanesulfonamide] displayed an Emax of 103%.

Compound `Cc1cc2nc(c1)C1CCC(CC1)OCC1[C@@H](NS(C)(=O)=O)C[C@@H](C)N1C(=O)OCCO2` (stereo partly shown) [Example 66, N-((2^1S,2^4S,5^2R,5^3S,5^5R)-1^4,5^5-dimethyl-6-oxo-3,7,10-trioxa-1(2,6)-pyridina-5(2,1)-pyrrolidina-2(1,4)-cyclohexanacyclodecaphane-5^3-yl)methanesulfonamide] showed an Emax of 95%.

`Cc1cc2nc(c1)C1CCC(CC1)OCC1[C@@H](NS(C)(=O)=O)C[C@@H](C)N1C(=O)OCCCO2` (stereo partly shown) [Example 67, N-((2^1S,2^4S,5^2R,5^3S,5^5R)-1^4,5^5-dimethyl-6-oxo-3,7,11-trioxa-1(2,6)-pyridina-5(2,1)-pyrrolidina-2(1,4)-cyclohexanacycloundecaphane-5^3-yl)methanesulfonamide] yielded a maximal response (Emax) of 98.5%.

Compound `C[C@@H]1C[C@H](NS(C)(=O)=O)C2COC3CCC(CC3)c3nc(ccc3C(F)(F)F)OCCOC(=O)N21` (stereo partly shown) [Example 68, N-((2^1S,2^4S,5^2R,5^3S,5^5R)-5^5-methyl-6-oxo-1^3-(trifluoromethyl)-3,7,10-trioxa-1(2,6)-pyridina-5(2,1)-pyrrolidina-2(1,4)-cyclohexanacyclodecaphane-5^3-yl)methanesulfonamide] returned an Emax of 102%.

In the case of `C[C@@H]1C[C@H](NS(C)(=O)=O)C2COC3CCC(CC3)c3nc(ccc3C(F)(F)F)OCCCOC(=O)N21` (stereo partly shown) [Example 69, N-((2^1S,2^4S,5^2R,5^3S,5^5R)-5^5-methyl-6-oxo-1^3-(trifluoromethyl)-3,7,11-trioxa-1(2,6)-pyridina-5(2,1)-pyrrolidina-2(1,4)-cyclohexanacycloundecaphane-5^3-yl)methanesulfonamide], the Emax turned out to be 94.7%.

For the compound `COc1cc2nc(c1)C1CCC(CC1)OCC1[C@@H](NS(C)(=O)=O)C[C@@H](C)N1C(=O)OCCO2` (stereo partly shown) [Example 70, N-((2^1S,2^4S,5^2R,5^3S,5^5R)-1^4-methoxy-5^5-methyl-6-oxo-3,7,10-trioxa-1(2,6)-pyridina-5(2,1)-pyrrolidina-2(1,4)-cyclohexanacyclodecaphane-5^3-yl)methanesulfonamide], the Emax turned out to be 102%.

`COc1cc2nc(c1)C1CCC(CC1)OCC1[C@@H](NS(C)(=O)=O)C[C@@H](C)N1C(=O)OCCCO2` (stereo partly shown) [Example 71, N-((2^1S,2^4S,5^2R,5^3S,5^5R)-1^4-methoxy-5^5-methyl-6-oxo-3,7,11-trioxa-1(2,6)-pyridina-5(2,1)-pyrrolidina-2(1,4)-cyclohexanacycloundecaphane-5^3-yl)methanesulfonamide] returned an Emax of 102%.

Turning to `C[C@@H]1C[C@H](NS(C)(=O)=O)C2COC3CCC(CC3)c3ccc(OC(F)(F)F)c(n3)OCCOC(=O)N21` (stereo partly shown) [Example 72, N-((2^1S,2^4S,5^2R,5^3S,5^5R)-5^5-methyl-6-oxo-1^5-(trifluoromethoxy)-3,7,10-trioxa-1(2,6)-pyridina-5(2,1)-pyrrolidina-2(1,4)-cyclohexanacyclodecaphane-5^3-yl)methanesulfonamid], the Emax amounted to 102%.

Consider `C[C@@H]1C[C@H](NS(C)(=O)=O)C2COC3CCC(CC3)c3ccc(OC(F)(F)F)c(n3)OCCCOC(=O)N21` (stereo partly shown) [Example 73, N-((2^1S,2^4S,5^2R,5^3S,5^5R)-5^5-methyl-6-oxo-1^5-(trifluoromethoxy)-3,7,11-trioxa-1(2,6)-pyridina-5(2,1)-pyrrolidina-2(1,4)-cyclohexanacycloundecaphane-5^3-yl)methanesulfonamide], for which the Emax was 100%.

`COc1cc2nc(c1F)OCCCOC(=O)N1C(COC3CCC2CC3)[C@@H](NS(C)(=O)=O)C[C@H]1C` (stereo partly shown) [Example 75, N-((2^1S,2^4S,5^2R,5^3S,5^5R)-1^4-fluoro-1^3-methoxy-5^5-methyl-6-oxo-3,7,11-trioxa-1(2,6)-pyridina-5(2,1)-pyrrolidina-2(1,4)-cyclohexanacycloundecaphane-5^3-yl)methane sulfonamide] displayed an Emax of 97.2%.

Turning to `COc1ccc2nc1OCCCOC(=O)N1C(COC3CCC2CC3)[C@@H](NS(C)(=O)=O)C[C@H]1C` (stereo partly shown) [Example 76, N-((2^1S,2^4S,5^2R,5^3S,5^5R)-1^5-methoxy-5^5-methyl-6-oxo-3,7,11-trioxa-1(2,6)-pyridina-5(2,1)-pyrrolidina-2(1,4)-cyclohexanacycloundecaphane-5^3-yl)methanesulfonamide], the Emax was found to be 101%.

As for `CCOc1cc2nc(c1)C1CCC(CC1)OCC1[C@@H](NS(C)(=O)=O)C[C@@H](C)N1C(=O)OCCO2` (stereo partly shown) [Example 77, N-((2^1S,2^4S,5^2R,5^3S,5^5R)-1^4-ethoxy-5^5-methyl-6-oxo-3,7,10-trioxa-1(2,6)-pyridina-5(2,1)-pyrrolidina-2(1,4)-cyclohexanacyclodecaphane-5^3-yl)methanesulfonamide], the Emax stood at 99.5%.

`CCOc1cc2nc(c1)C1CCC(CC1)OCC1[C@@H](NS(C)(=O)=O)C[C@@H](C)N1C(=O)OCCCO2` (stereo partly shown) [Example 78, N-((2^1S,2^4S,5^2R,5^3S,5^5R)-1^4-ethoxy-5^5-methyl-6-oxo-3,7,11-trioxa-1(2,6)-pyridina-5(2,1)-pyrrolidina-2(1,4)-cyclohexanacycloundecaphane-5^3-yl)methanesulfonamide]: the Emax stood at 100%.
